Assays:
Nod2 [1] = biological target: T1, Nod2 (Homo sapiens, UniProt Q9HC29); details: cited from earlier work
T1 construct: expressed in transfected cells

Nod2 [2] = biological target: T1, Nod2; experiment: Nod2-dependent activation of NF-κB; format: cell-based; details: 10 ng (FIG. 2d)
Protocol: (§1) Studies examining the activation of NF-κB by LPS, lipid A, lipoproteins or the purified PGNs in cells over-expressing Nod1 were carried out as described by Inohara et al. (9). Briefly, HEK293 cells were transfected overnight with 10 ng of Nod 1. At the same time, the LPS, lipoproteins or peptidoglycan preparations were added and the NF-κB-dependent luciferase activation was then measured following 24 h of co-incubation.
(§2) NF-κB-dependent luciferase assays were performed in duplicate and data represent at least 3 independent experiments.
(§3) In FIG. 2a, PGN muropeptides from N. meningitides were separated by reverse-phase HPLC and subsequently analysed by mass spectroscopy (see supporting on-line text). […] In FIG. 2d, equivalent amounts (10 ng) of GM-dipeptide (GM-di; synthetic source), GM-tripeptide (GMtri), or GM-tetrapeptide (GM-tetra) were tested for stimulation of Nod 1-, Nod2- or TLR2-dependent activation of NF-κB. […] Buff, buffer diluent of the muropeptides.

Nod1 [3] = biological target: T2, Nod1 (Homo sapiens, UniProt Q9Y239); experiment: Nod1-dependent NF-κB luciferase activation in Nod1-overexpressing HEK293 cells; format: cell-based; design: expressed in transfected cells; host or cells: HEK293; details: for detection by Nod1: FIG. 8B-8D, additional experiments; for Nod1-dependent activation of NF-κB by muropeptides: 10 ng (FIG. 2d); for stimulation of the Nod1 pathway by HPLC fractions of N. meningitidis PGN muropeptides: 1% of the volume of each HPLC fraction (FIG. 2b); for stimulation of the Nod1 pathway (NF-κB activation): LPS, lipid A, lipoproteins preparations at 10 μg/ml (FIG. 1a, 1b)
T2 sequence (Q9Y239 1-953): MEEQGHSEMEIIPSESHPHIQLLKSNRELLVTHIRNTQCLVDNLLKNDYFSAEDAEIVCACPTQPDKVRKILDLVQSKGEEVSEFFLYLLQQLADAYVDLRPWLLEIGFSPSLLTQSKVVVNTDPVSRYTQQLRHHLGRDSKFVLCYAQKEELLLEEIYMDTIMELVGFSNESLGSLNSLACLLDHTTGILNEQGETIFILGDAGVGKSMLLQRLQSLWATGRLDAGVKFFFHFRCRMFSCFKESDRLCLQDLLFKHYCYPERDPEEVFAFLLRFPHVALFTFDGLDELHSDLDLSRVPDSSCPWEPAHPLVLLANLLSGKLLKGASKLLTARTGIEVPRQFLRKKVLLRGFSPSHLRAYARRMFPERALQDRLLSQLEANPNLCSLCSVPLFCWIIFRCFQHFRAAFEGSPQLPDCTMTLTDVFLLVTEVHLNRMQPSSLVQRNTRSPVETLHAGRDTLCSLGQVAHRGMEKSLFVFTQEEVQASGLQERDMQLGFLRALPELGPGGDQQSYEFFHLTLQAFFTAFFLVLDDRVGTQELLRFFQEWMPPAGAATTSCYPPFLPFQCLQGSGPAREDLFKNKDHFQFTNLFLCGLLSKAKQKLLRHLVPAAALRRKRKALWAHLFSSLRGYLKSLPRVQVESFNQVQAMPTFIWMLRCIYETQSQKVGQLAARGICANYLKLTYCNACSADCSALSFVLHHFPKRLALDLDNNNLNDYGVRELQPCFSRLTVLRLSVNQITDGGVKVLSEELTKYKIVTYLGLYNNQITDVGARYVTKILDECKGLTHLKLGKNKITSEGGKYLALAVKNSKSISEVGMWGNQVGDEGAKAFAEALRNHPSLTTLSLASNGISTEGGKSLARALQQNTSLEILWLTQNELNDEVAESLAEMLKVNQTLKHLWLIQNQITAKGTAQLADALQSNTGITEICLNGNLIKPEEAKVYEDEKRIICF
Protocol: as §1, §2

Nod1 [4] = biological target: T2, Nod1; experiment: Nod1-dependent IL-8 production in HeLa epithelial cells (ELISA); format: cell-based; design: expressed in transfected cells; details: HeLa cells transfected with 10 ng Nod1; 18 h; IL-1 at 10 ng/ml (FIG. 2f)
Protocol: To measure Nod1-dependent IL-8 produced in epithelial cells by muropeptides, 5×10^5HeLa cells were seeded into each well of a twelve well plate and transfected the following day with 10 ng Nod1 plus the individual muropeptides (as described above) or treated with IL-1 as a positive control. Eighteen hours later, supernatants were collected and assayed for IL-8 as previously described (10) using an ELISA kit (R and D Systems).
as §3

[5] = test system: NF-κB p65 in intestinal epithelial cells from Nod1-deficient mice; experiment: NF-κB p65 nuclear translocation in intestinal epithelial cells from Nod1-deficient mice; format: cell-based; details: microinjection of supernatants; TNFα 10 ng/ml
macrophages = experiment: Activation of macrophages; format: cell-based

T1 sequence (Q9HC29 whole entry): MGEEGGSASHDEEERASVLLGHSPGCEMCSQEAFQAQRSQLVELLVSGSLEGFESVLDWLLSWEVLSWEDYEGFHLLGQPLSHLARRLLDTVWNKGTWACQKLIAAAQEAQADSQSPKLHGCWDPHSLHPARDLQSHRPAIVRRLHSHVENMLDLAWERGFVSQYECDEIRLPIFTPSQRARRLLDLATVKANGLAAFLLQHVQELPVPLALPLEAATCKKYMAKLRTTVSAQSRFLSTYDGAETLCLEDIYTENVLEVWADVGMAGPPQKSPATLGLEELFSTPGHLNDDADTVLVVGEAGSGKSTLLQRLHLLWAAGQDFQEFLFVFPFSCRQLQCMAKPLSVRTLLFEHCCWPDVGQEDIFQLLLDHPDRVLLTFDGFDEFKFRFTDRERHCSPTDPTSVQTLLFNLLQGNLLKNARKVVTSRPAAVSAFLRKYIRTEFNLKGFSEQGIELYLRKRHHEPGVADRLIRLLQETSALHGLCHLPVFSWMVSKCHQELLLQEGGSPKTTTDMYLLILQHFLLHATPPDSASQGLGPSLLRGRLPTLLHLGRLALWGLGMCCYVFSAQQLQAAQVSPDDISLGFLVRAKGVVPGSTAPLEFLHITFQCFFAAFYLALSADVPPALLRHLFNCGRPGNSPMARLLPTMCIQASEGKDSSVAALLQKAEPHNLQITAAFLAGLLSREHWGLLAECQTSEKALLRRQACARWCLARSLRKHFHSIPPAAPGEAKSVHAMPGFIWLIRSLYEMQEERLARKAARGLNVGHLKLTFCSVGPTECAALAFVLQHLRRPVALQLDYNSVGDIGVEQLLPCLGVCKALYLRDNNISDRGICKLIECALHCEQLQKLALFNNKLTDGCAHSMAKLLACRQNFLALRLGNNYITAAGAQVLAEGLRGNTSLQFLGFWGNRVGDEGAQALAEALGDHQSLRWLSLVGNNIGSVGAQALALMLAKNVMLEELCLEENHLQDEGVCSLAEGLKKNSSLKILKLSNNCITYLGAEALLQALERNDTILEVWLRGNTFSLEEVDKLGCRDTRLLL

For `CC(=O)N[C@H]1C(O)O[C@H](CO)[C@@H](O)[C@@H]1O[C@H](C)C(=O)N[C@@H](C)C(=O)N[C@H](CCC(=O)O)C(N)=O` (mixture of isomers) [M-dipeptide, muramyl dipeptide], the “recognition by Nod2 (previous findings)” value (Nod2 [1]) is listed as “recognizes”.
With `CC(=O)N[C@H]1[C@H](O[C@H]2[C@H](O[C@H](C)C(=O)N[C@@H](C)C(=O)N[C@H](CCC(=O)O)C(N)=O)[C@@H](NC(C)=O)C(O)O[C@@H]2CO)O[C@H](CO)[C@@H](O)[C@@H]1O` (stereo partly drawn) [GM-dipeptide] the “Nod2-dependent activation of NF-κB by muropeptides” value (Nod2 [2]) was “detects”.
In the case of `CC(=O)NC1C(O)OC(CO)C(O)C1OC(C)C(=O)NC(C)C(=O)NC(CCC(=O)NC(CCCC(N)C(=O)O)C(=O)O)C(=O)O` (stereo not drawn) [MurTriDAP], the “detection by Nod1” value (Nod1 [3]) is reported as “detects”.
In the case of `CC(=O)N[C@H]1[C@@H](OP(=O)(O)OP(=O)(O)OC[C@H]2O[C@@H](n3ccc(=O)[nH]c3=O)[C@H](O)[C@@H]2O)O[C@H](CO)[C@@H](O)[C@@H]1O[C@H](C)C(=O)N[C@@H](C)C(=O)N[C@H](CCC(=O)N[C@@H](CCC[C@@H](N)C(=O)O)C(=O)O)C(=O)O` [UDP-MurTriDAP], the “detection by Nod1” value (Nod1 [3]) is reported as “detects”.
With `C[C@H](N)C(=O)N[C@H](CCC(=O)NC(CCCC(N)C(=O)O)C(=O)O)C(=O)O` (stereo partly drawn) [tripeptide L-Ala-D-Glu-mesoDAP, L-Ala-D-Glu-mesoDAP] the “detection by Nod1” value (Nod1 [3]) was “able to sense” and the “detection by Nod1” value (Nod1 [3]; listed as TriDAP) was “detects”.
With “GlcNAc-MurNAc-L-Ala-D-Glu-mesoDAP [GM-tripeptide]” the “Nod1-dependent activation of NF-κB by muropeptides” value (Nod1 [3]) was “specifically detects”, the “stimulation of the Nod1 pathway by HPLC fractions of N. meningitidis PGN muropeptides” value (Nod1 [3]) was “activates Nod1” and the “detection by Nod1” value (Nod1 [3]) was “detects”. The “production of IL-8” value (Nod1 [4]) was “production of the pro-inflammatory chemokine, IL-8”.
With “GlcNAc-MurNAc-L-Ala-D-Glu-mesoDAP(GlcNAc-MurNAc-L-Ala-D-Glu-mesoDAP-D-Ala)-D-Ala [dimeric GM-tetrapeptide, reference compound]” the “stimulation of the Nod1 pathway by HPLC fractions of N. meningitidis PGN muropeptides” value (Nod1 [3]) was “does not activate Nod1”.
In the case of “GlcNAc-MurNAc-L-Ala-D-Glu-mesoDAP-DAla [GM-tetrapeptide]”, the “Nod1-dependent activation of NF-κB by muropeptides” value (Nod1 [3]) is reported as “not sensed”.
With “GlcNAc-anhydro-MurNAc-L-Ala-D-GlumesoDAP [anhydrous GM-tripeptide]” the “stimulation of the Nod1 pathway by HPLC fractions of N. meningitidis PGN muropeptides” value (Nod1 [3]) was “activates Nod1”.
For “Lpp: the most abundant lipoprotein in E. coli (lipidated)”, the “stimulation of the Nod1 pathway (NF-κB activation)” value (shortened to “stimulation … (NF-κB activation)”) (Nod1 [3]) was “not possible to stimulate the Nod1 pathway”.
With “Pam3Cys-Ser-Lys4-OH [synthetic lipopeptide, reference compound]” the “stimulation … (NF-κB activation)” value (Nod1 [3]) was “not possible to stimulate the Nod1 pathway”.
With TNFα the “NF-κB nuclear translocation in Nod1-deficient cells” value [5] was “can efficiently stimulate NF-κB nuclear translocation”.
With lipid A [reference compound] the activation of macrophages (macrophages) was “could efficiently activate macrophages” and the “stimulation … (NF-κB activation)” value (Nod1 [3]) was “could not stimulate the Nod1 pathway”.
